Assay results: PubChem BioAssay AID248 (DTP/NCI, 2004)
Several values for one entry are separate records, joined by “and”; a condition that tells them apart may be missing. Equal entries are not always repeated. Toxic doses and inconclusive results are not listed. No stated cut-off is given here; in the data, active means T/C of 150% or more; inactive means T/C below 125%.

Test system: L1210 leukemia ip in BDF1 mice, survival T/C
Assay: NCI In Vivo Anticancer Drug Screen. Data for tumor model L1210 Leukemia (intraperitoneal) in B6D2F1 (BDF1) mice
Settings: endpoint: mean survival time, higher = longer survival
Outline: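 Each compound was tested against a transplantable tumor grown in mice. The endpoint was survival, with treated animals benchmarked against vehicle controls as a simple ratio.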

[1] = dose: 100.0 mg/kg/injection, schedule: Q01DX001 (ip), vehicle: Klucel (hydroxypropylcellulose) (HPC)
[2] = dose: 100.0 mg/kg/injection, schedule: Q04DX003 (ip), vehicle: Klucel (hydroxypropylcellulose) (HPC)
[3] = dose: 200.0 mg/kg/injection, schedule: Q01DX001 (ip), vehicle: Klucel (hydroxypropylcellulose) (HPC)
[4] = dose: 200.0 mg/kg/injection, schedule: Q04DX003 (ip), vehicle: Klucel (hydroxypropylcellulose) (HPC)
[5] = dose: 400.0 mg/kg/injection, schedule: Q01DX001 (ip), vehicle: Klucel (hydroxypropylcellulose) (HPC)
[6] = dose: 400.0 mg/kg/injection, schedule: Q04DX003 (ip), vehicle: Klucel (hydroxypropylcellulose) (HPC)
[7] = dose: 100.0 mg/kg/injection, schedule: Q01DX009 (ip), vehicle: Klucel (hydroxypropylcellulose) (HPC)
[8] = dose: 400.0 mg/kg/injection, schedule: Q01DX009 (ip), vehicle: Klucel (hydroxypropylcellulose) (HPC)
[9] = dose: 6.25 mg/kg/injection, schedule: Q01DX009 (ip), vehicle: saline
[10] = dose: 12.5 mg/kg/injection, schedule: Q04DX003 (ip), vehicle: saline
[11] = dose: 25.0 mg/kg/injection, schedule: Q04DX003 (ip), vehicle: saline
[12] = dose: 200.0 mg/kg/injection, schedule: Q01DX009 (ip), vehicle: Klucel (hydroxypropylcellulose) (HPC)

Measured: T/C

O=C(OCCCl)c1ccccc1
inactive: dose: 60.0 mg/kg/injection, schedule: Q01DX009 (ip), vehicle: Klucel (hydroxypropylcellulose) (HPC) 103 % of control | [1] 106 % of control | [2] 101 % of control | dose: 120.0 mg/kg/injection, schedule: Q01DX009 (ip), vehicle: Klucel (hydroxypropylcellulose) (HPC) 100 % of control | [3] 98 % of control | [4] 101 % of control | dose: 240.0 mg/kg/injection, schedule: Q01DX009 (ip), vehicle: Klucel (hydroxypropylcellulose) (HPC) 94 % of control | [5] 98 % of control | [6] 101 % of control

CCOC(=O)c1cn(C2OC(COC(=O)c3ccccc3)C(OC(=O)c3ccccc3)C2OC(=O)c2ccccc2)c(=O)nc1Nc1ccccc1Br (stereo not given)
inactive: dose: 100.0 mg/kg/injection, schedule: Q01DX005 (ip), vehicle: saline 97 % of control | dose: 200.0 mg/kg/injection, schedule: Q01DX005 (ip), vehicle: saline 97 % of control

Cn1cnc2nc(Cl)[nH]c(=O)c21
inactive: [2] 100 % of control | [4] 97 % of control | [6] 95 % of control

CC(=O)OC1OC(COC(=O)c2ccccc2)C(OC(=O)c2ccccc2)C1OC(=O)c1ccccc1 (stereo not given)
inactive: [1] 118 % of control and 95 % of control | [7] 92 % of control | [3] 97 % of control and 92 % of control | [5] 101 % of control and 92 % of control | [8] 92 % of control

FC(F)(F)c1ccc2c(c1)N(CCCN1CCN(CC[n+]3ccccc3)CC1)c1ccccc1S2
inactive: dose: 1.56 mg/kg/injection, schedule: Q01DX009 (ip), vehicle: saline 95 % of control | dose: 3.12 mg/kg/injection, schedule: Q01DX009 (ip), vehicle: saline 95 % of control | [9] 110 % of control | dose: 9.2 mg/kg/injection, schedule: Q01DX009 (ip), vehicle: saline 120 % of control | [10] 101 % of control | dose: 14.0 mg/kg/injection, schedule: Q01DX009 (ip), vehicle: saline 109 % of control | [11] 97 % of control

COC1(OC)CCC=C(CNc2ncnc3nc[nH]c23)C1
inactive: dose: 100.0 mg/kg/injection, schedule: Q01DX001 (ip), vehicle: saline with Tween-80 102 % of control | dose: 200.0 mg/kg/injection, schedule: Q01DX001 (ip), vehicle: saline with Tween-80 94 % of control | dose: 400.0 mg/kg/injection, schedule: Q01DX001 (ip), vehicle: saline with Tween-80 100 % of control

C[N+]1(C)CCCC1
inactive: [9] 103 % of control | dose: 12.5 mg/kg/injection, schedule: Q01DX009 (ip), vehicle: saline 102 % of control | [10] 86 % of control | dose: 25.0 mg/kg/injection, schedule: Q01DX009 (ip), vehicle: saline 109 % of control | [11] 91 % of control | dose: 50.0 mg/kg/injection, schedule: Q04DX003 (ip), vehicle: saline 95 % of control

Cc1ccc(S(=O)(=O)OCC(C)([N+](=O)[O-])[N+](=O)[O-])cc1
inactive: dose: 100.0 mg/kg/injection, schedule: Q04DX002 (ip), vehicle: saline with Tween-80 94 % of control | dose: 200.0 mg/kg/injection, schedule: Q04DX002 (ip), vehicle: saline with Tween-80 97 % of control | dose: 400.0 mg/kg/injection, schedule: Q04DX002 (ip), vehicle: saline with Tween-80 101 % of control

CN(C)C=Nc1cc2c(cc1Br)-c1ccccc1C2=O
inactive: [7] 101 % of control | [12] 95 % of control | [8] 93 % of control

O=c1cc(Nc2cccc(-c3ccccc3)c2)[nH]c(=O)[nH]1
inactive: dose: 87.5 mg/kg/injection, schedule: Q01DX001 (ip), vehicle: gum acacia 90 % of control | dose: 175.0 mg/kg/injection, schedule: Q01DX001 (ip), vehicle: gum acacia 102 % of control | dose: 350.0 mg/kg/injection, schedule: Q01DX001 (ip), vehicle: gum acacia 95 % of control

Clc1ccc2c(Cl)cc(Cl)nc2c1
inactive: dose: 75.0 mg/kg/injection, schedule: Q01DX001 (ip), vehicle: saline 92 % of control | dose: 300.0 mg/kg/injection, schedule: Q01DX001 (ip), vehicle: saline 87 % of control

O=S(=O)(O)c1cccc2nsnc12
inactive: [7] 107 % of control | [12] 109 % of control

CCNc1nnnn1-c1ccccc1
inactive: dose: 100.0 mg/kg/injection, schedule: Q01DX001 (ip), vehicle: saline 97 % of control | dose: 200.0 mg/kg/injection, schedule: Q01DX001 (ip), vehicle: saline 101 % of control
